According to patent US12655465B2, “System for detecting and characterizing a microorganism” (Q-Linea AB, priority 2016, dated 2026):
≈ marks a conversion by molar mass, not a printed value.

Tests used:
[1] = test system: E. coli; assay: AST by flow cytometry type counting of individual bacteria (Aquila 400), MIC from differential growth; assay type: cell-based; details: Aquila 400 counting; for MIC: Escherichia coli
Description: The sample was enriched for bacteria and at the same time the culture media was changed, in this case to Mueller-Hinton media (MH-media). E. coli bacteria were recovered via filtration through a 0.2 μm filter and the recovered bacteria were resuspended in MH-media to a concentration of approximately 10^8 CFU/ml in Müller Hinton broth before being diluted to approximately 10^6 CFU/ml in Müller Hinton Broth. Antibiotic solutions were prepared in a series of 2:1 serial dilutions in Müller Hinton broth at 10× test concentrations. The range of antibiotic concentrations was chosen based on identity of the bacteria and the antibiotic. As the microorganism identified in Example 1 was E. coli in this case the following antibiotics were selected for use in the antimicrobial susceptibility test: Ciprofloxacin, Piperacillin+Tazobactam, Cefotaxime, Ceftazidim, Meropenem and Gentamicin. A series of eight different concentrations was selected based on known clinical MIC values. Eight sample tubes containing 100 μl antibiotic solution at eight different concentrations and 800 μl Müller Hinton broth were prepared. One additional tube contains 900 μl Müller Hinton broth and no antibiotic as positive control. 100 μl bacterial suspension (10^6 CFU/ml) was added to all nine tubes. A negative control sample comprising 1000 μl Müller Hinton broth (i.e., no bacteria) is prepared as negative control. All tubes were incubated at 35° C. and samples were taken after 0, 4, 6 and 24 hours. Bacterial samples were prepared for counting as in Example 2. Bacterial AST profiles were determined using a flow cytometry based counting of individual bacteria in an Aquila 400™ instrument (Q-linea AB, Sweden). Aquila 400 analysis was performed using the alexa 488™ laser. It was evident from the analysis performed at different time points that 4 hours was sufficient for detecting differential bacterial growth at the different concentration of antibiotics and thus to determine antibiotic susceptibility. Shorter times have been shown in the literature so this is not unexpected. MIC values for each antibiotic at different time points and cut-off values were calculated based on the differential bacterial growth. Values obtained by this method compared favorably with previously reported clinical MIC values and are shown below.

[2] = test system: E. coli; assay: MIC with Macrobroth dilution; assay type: cell-based; details: reference method; for MIC: Escherichia coli
[3] = test system: E. coli; details: determined by another lab; cited from earlier work
[4] = 4 h, cut-off 20%, 4 hours, read-out: MIC, 4 hours
[5] = 6 h, cut-off 15%, 6 hours, read-out: MIC, 6 hours
[6] = 6 h, cut-off 20%, 6 hours, read-out: MIC, 6 hours
[7] = 24 h, cut-off 5%, 24 hours, read-out: MIC, 24 hours
[8] = 24 h, cut-off 10%, 24 hours, read-out: MIC, 24 hours
[9] = 24 h, cut-off 15%, 24 hours, read-out: MIC, 24 hours
[10] = 24 h, cut-off 20%, 24 hours, read-out: MIC, 24 hours
[11] = 4 h, cut-off 5%, 4 hours incubation at 35° C. in Müller Hinton broth, read-out: MIC, 4 hours
[12] = 4 h, cut-off 10%, 4 hours, read-out: MIC, 4 hours
[13] = 4 h, cut-off 15%, 4 hours, read-out: MIC, 4 hours
[14] = 6 h, cut-off 5%, 6 hours, read-out: MIC, 6 hours
[15] = 6 h, cut-off 10%, 6 hours, read-out: MIC, 6 hours
[16] = cut-off 5%, 4 hours incubation at 35° C. in Müller Hinton broth

Row | Molecule | MIC [1, 4] [µg/mL] | MIC [1, 5] [µg/mL] | MIC [1, 6] [µg/mL] | MIC [1, 7] [µg/mL] | MIC [1, 8] [µg/mL] | MIC [1, 9] [µg/mL] | MIC [1, 10] [µg/mL] | MIC [2] [µg/mL] | MIC with E-test [3] [µg/mL] | MIC [1, 11] [µg/mL] | MIC [1, 12] [µg/mL] | MIC [1, 13] [µg/mL] | MIC [1, 14] [µg/mL] | MIC [1, 15] [µg/mL] | MIC, 4 hours [1, 16] [µg/mL] | MIC, 6 hours ([1]; cut-off 5%, 6 hours) [µg/mL] | MIC, 24 hours ([1]; cut-off 5%, 24 hours) [µg/mL] | MIC, 4 hours ([1]; cut-off 10%, 4 hours) [µg/mL] | MIC, 6 hours ([1]; cut-off 10%, 6 hours) [µg/mL] | MIC, 24 hours ([1]; cut-off 10%, 24 hours) [µg/mL] | further results
1 | C[C@@H](O)[C@H]1C(=O)N2C(C(=O)O)=C(S[C@@H]3CN[C@H](C(=O)N(C)C)C3)[C@H](C)[C@H]12 [Meropenem] | 0.5 (≈ 1.3 µM) | 0.5 (≈ 1.3 µM) | 0.25 (≈ 0.652 µM) | 0.5 (≈ 1.3 µM) | 0.5 (≈ 1.3 µM) | 0.25 (≈ 0.652 µM) | 0.125 (≈ 0.326 µM) | 0.25 to 0.5 (≈ 0.652 to 1.3 µM) | ≤ 0.25 |  |  |  |  |  |  |  |  |  |  |  | 
2 | CC(C)(O/N=C(\C(=O)N[C@@H]1C(=O)N2C(C(=O)[O-])=C(C[n+]3ccccc3)CS[C@H]12)c1csc(N)n1)C(=O)O [Ceftazidime] | 0.125 (≈ 0.229 µM) | 0.125 (≈ 0.229 µM) | 0.125 (≈ 0.229 µM) | 0.25 (≈ 0.457 µM) | 0.25 (≈ 0.457 µM) | 0.25 (≈ 0.457 µM) | 0.25 (≈ 0.457 µM) | 0.25 (≈ 0.457 µM) | ≤ 0.5 | 0.25 (≈ 0.457 µM) | 0.25 (≈ 0.457 µM) | 0.125 (≈ 0.229 µM) | 0.125 (≈ 0.229 µM) | 0.125 (≈ 0.229 µM) |  |  |  |  |  |  | 
3 | Gentamicin |  |  |  |  |  |  |  |  | 1 |  |  |  |  |  | 1 | 0.5 | 1 | 0.5 | 0.5 | 1 | MIC, 4 hours ([1]; cut-off 15%, 4 hours): 0.5 µg/mL; MIC, 6 hours ([1]; cut-off 15%, 6 hours): 0.5 µg/mL; MIC, 24 hours ([1]; cut-off 15%, 24 hours): 1 µg/mL; MIC, 4 hours ([1]; cut-off 20%, 4 hours): 0.5 µg/mL; MIC, 6 hours ([1]; cut-off 20%, 6 hours): 0.5 µg/mL; MIC, 24 hours ([1]; cut-off 20%, 24 hours): 1 µg/mL; MIC with Macrobroth dilution [2]: 0.5 to 1 µg/mL
4 | Piperacillin and Tazobactam |  |  |  |  |  |  |  |  | 2 |  |  |  |  |  | 4 | 4 | 4 | 4 | 4 | 4 | MIC, 4 hours ([1]; cut-off 15%, 4 hours): 4 µg/mL; MIC, 6 hours ([1]; cut-off 15%, 6 hours): 4 µg/mL; MIC, 24 hours ([1]; cut-off 15%, 24 hours): 4 µg/mL; MIC, 4 hours ([1]; cut-off 20%, 4 hours): 4 µg/mL; MIC, 6 hours ([1]; cut-off 20%, 6 hours): 2 µg/mL; MIC, 24 hours ([1]; cut-off 20%, 24 hours): 2 µg/mL; MIC with Macrobroth dilution [2]: 4 to 8 µg/mL
5 | O=C(O)c1cn(C2CC2)c2cc(N3CCNCC3)c(F)cc2c1=O [Ciprofloxacin] | 0.008 (≈ 0.0241 µM) | 0.008 (≈ 0.0241 µM) | 0.004 (≈ 0.0121 µM) | 0.008 (≈ 0.0241 µM) | 0.008 (≈ 0.0241 µM) | 0.008 (≈ 0.0241 µM) | 0.008 (≈ 0.0241 µM) | 0.016 (≈ 0.0483 µM) | ≤ 0.03 | 0.016 (≈ 0.0483 µM) | 0.008 (≈ 0.0241 µM) | 0.008 (≈ 0.0241 µM) | 0.008 (≈ 0.0241 µM) | 0.008 (≈ 0.0241 µM) |  |  |  |  |  |  | 
6 | CO/N=C(\C(=O)N[C@@H]1C(=O)N2C(C(=O)O)=C(COC(C)=O)CS[C@H]12)c1csc(N)n1 [Cefotaxime] | 0.06 (≈ 0.132 µM) | 0.03 (≈ 0.0659 µM) | 0.03 (≈ 0.0659 µM) | 0.125 (≈ 0.274 µM) | 0.125 (≈ 0.274 µM) | 0.06 (≈ 0.132 µM) | 0.06 (≈ 0.132 µM) | 0.125 (≈ 0.274 µM) | ≤ 0.5 |  |  | 0.06 (≈ 0.132 µM) | 0.06 (≈ 0.132 µM) | 0.06 (≈ 0.132 µM) |  |  |  |  |  |  | 
